We go through 48 compounds from patent US10093678B2, “Azaspiro derivatives as TRPM8 antagonists” (RaQualia Pharma Inc., priority 2014, dated 2018).

The pIC50 is the IC50 on a negative log10 scale, so that one unit is a factor of ten.

pIC50: −log10 of the molar value.

For this experiment, the target named is T1, human TRPM8 (Homo sapiens, UniProt Q7Z2W7).
T1 construct: expressed in transfected cells; host or cells: HEK293
T1 sequence (Q7Z2W7 whole entry): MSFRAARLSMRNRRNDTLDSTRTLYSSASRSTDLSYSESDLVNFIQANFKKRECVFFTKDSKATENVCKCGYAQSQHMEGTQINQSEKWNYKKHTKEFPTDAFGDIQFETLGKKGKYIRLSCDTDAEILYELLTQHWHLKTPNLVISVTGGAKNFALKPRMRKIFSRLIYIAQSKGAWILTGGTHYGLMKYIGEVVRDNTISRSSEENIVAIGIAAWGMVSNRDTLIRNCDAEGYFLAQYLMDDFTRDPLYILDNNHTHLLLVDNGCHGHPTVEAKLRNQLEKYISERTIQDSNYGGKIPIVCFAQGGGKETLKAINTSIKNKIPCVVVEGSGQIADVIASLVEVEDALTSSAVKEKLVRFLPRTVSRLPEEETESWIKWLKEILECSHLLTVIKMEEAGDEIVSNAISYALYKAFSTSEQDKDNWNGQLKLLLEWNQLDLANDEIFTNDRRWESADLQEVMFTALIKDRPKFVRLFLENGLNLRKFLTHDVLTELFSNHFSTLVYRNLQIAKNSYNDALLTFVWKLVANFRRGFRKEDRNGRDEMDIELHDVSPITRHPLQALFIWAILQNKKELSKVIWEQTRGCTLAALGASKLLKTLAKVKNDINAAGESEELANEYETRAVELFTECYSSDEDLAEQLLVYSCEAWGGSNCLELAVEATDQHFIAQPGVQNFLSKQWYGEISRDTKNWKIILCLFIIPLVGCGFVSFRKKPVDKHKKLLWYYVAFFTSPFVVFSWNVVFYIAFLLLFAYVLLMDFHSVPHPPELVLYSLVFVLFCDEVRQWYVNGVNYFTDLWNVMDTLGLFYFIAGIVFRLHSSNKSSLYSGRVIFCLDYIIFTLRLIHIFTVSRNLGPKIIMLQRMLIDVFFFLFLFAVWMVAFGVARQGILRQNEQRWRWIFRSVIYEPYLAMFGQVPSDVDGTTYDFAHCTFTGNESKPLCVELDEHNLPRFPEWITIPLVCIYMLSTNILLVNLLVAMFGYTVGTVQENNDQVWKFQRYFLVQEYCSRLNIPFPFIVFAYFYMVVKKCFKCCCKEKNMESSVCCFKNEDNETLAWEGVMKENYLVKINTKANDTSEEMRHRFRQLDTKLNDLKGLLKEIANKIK
Nature of the experiment: Menthol-induced Ca2+ influx in HEK293 cells stably expressing human TRPM8. The format is cell-based. The settings on record: 30 microM menthol-induced Ca2+ influx, read-out: IC50 against TRPM8. As for the experimental part: Measurement of the Menthol-Induced Ca^2+ Influx in HEK293 Cells Stably Expressing Human TRPM8
A cell-based Ca^2+ influx assay using HEK293 cells stably expressing human TRPM8 is used to identify the activity of compounds.
HEK293 cells stably expressing human TRPM8 are grown in T175 flasks at 37° C. in a 5% CO2 humidified incubator to about 80% confluence. Media composition consists of Dulbecco's Modified Eagle Medium (high glucose), 10% fetal calf serum (FCS), 100 units/mLPenicillin, 100 microg/mL Streptomycin and 600 microg/mL Geneticine. At 24 hours prior to assay, cells are seeded in poly-D-lysine coated 384-well plates (BD FALCON) at a density of 30,000 cells per well in culture medium and grown overnight in 5% CO2 at 37° C. On the assay day, growth media is removed and cells are loaded with 0.5 microM Fluo4-AM (Molecular Probes) and 0.005% Pluronic F-127 dissolved in assay buffer (Hank's balanced salt solution (HBSS), 19.4 mM HEPES pH7.4, 2.5 mM Probenecid) for 1 hour at room temperature. After washing with assay buffer, the cells are preincubated with various concentrations of the compounds for 5 min. The changes in intracellular calcium concentration by addition of 30 microM menthol are monitored by the cell imaging technology by Hamamatsu Photonics Functional Drug Screening System (FDSS).
The IC50 values for compounds of the present invention are determined from 11-point dose-response studies. Curves are generated using the average of duplicate wells for each data point. Finally, the IC50 values are calculated with the best-fit dose curve determined by XLfit (ID Business Solutions Ltd.).
For the compound `Cc1ccnnc1-c1ccc(C(=O)CN2C(=O)NC3(CCC(F)(F)CC3)C2=O)c(F)c1` [Example 8-7], the pIC50 is > 7.00.
Then `O=C(CN1C(=O)NC2(CCC(F)(F)CC2)C1=O)c1ccc(-c2cccn3ccnc23)cc1` [Example 6-38], with > 7.00; and `Cn1c(C(=O)CN2C(=O)NC3(CCC(F)(F)CC3)C2=O)nc(C2CC2)c1-c1ccccc1` [Example 17-4], with > 7.00; and `N#Cc1ccccc1-c1c(F)cc(C(=O)CN2C(=O)NC3(CCC(F)(F)CC3)C2=O)cc1F` [Example 13-31], with > 7.00.
On to `Cc1nc2ccccc2n1-c1cnc(C(=O)CN2C(=O)NC3(CCC(F)(F)CC3)C2=O)cn1` [Example 19-33], for which the negative-log IC50 (pIC50) was > 8.00.
In the case of `Cc1nc2ccccc2n1-c1ccc(C(=O)CN2CC3(CCC(F)(F)CC3)OC2=O)cc1` [Example 22-3], the pIC50 was > 7.00.
On to `NC(=O)c1cccc(-c2ccc(C(=O)CN3C(=O)NC4(CCC(F)(F)CC4)C3=O)cc2)c1` [Example 6-110], for which the pIC50 is > 6.30.
Then `O=C(CN1C(=O)NC2(CCC(F)(F)CC2)C1=O)c1cc2cc(-c3cccnc3)ccc2o1` [Example 13-69], with > 6.30; and `Cc1c(N)cncc1-c1ccc(C(=O)CN2C(=O)NC3(CCC(F)(F)CC3)C2=O)cc1` [Example 6-76], with > 7.00.
Consider `O=C(CN1CC2(CCC(F)(F)CC2)OC1=O)c1ccc(-n2cnc3cccnc32)cc1` [Example 22-1], for which the negative-log IC50 (pIC50) was > 7.00.
As to `Cc1cc(C(=O)CN2C(=O)NC3(CCC(F)(F)CC3)C2=O)n(C)c1-c1cccc(Cl)c1` [Example 16-12], the negative-log IC50 (pIC50) is > 7.00.
Then `O=C(CN1C(=O)NC2(CCC(F)(F)CC2)C1=O)c1ccc(-c2ccccc2CCO)cc1` [Example 6-106], with > 7.00; and `O=C(CN1CC2(CCC(F)(F)CC2)OC1=O)c1ccc(-n2cnc3ccccc32)cc1` [Example 22-4], with > 7.00; and `CCc1cc(C(=O)CN2C(=O)NC3(CCCCC3)C2=O)c(C)n1-c1cc(C)on1` [Example 1-14], with > 6.30.
As for `O=C(CN1C(=O)NC2(CCCCC2)C1=O)c1ccc(Oc2ccccc2)nc1` [Example 5-24], the pIC50 was > 6.30.
Turning to `O=C(CN1C(=O)NC2(CCCCC2)C1=O)c1ccc(Oc2ccccc2)cc1` [Example 5-19], the negative logarithm of the IC50 (pIC50) is > 7.00.
For `O=C(CN1C(=O)NC2(CCCCC2)C1=O)c1ccc(OCCNc2ccccc2)nc1` [Example 20-4], the negative-log IC50 (pIC50) is > 6.30.
Take `O=C(CN1C(=O)NC2(CCC(F)(F)CC2)C1=O)c1ccc(-c2ncnc3ccccc23)cc1` [Example 6-2]: the pIC50 is > 8.00.
Take `Cc1sc(C(=O)CN2C(=O)NC3(CCC(F)(F)CC3)C2=O)c(C)c1-c1cccc(CO)c1` [Example 15-12]: the negative logarithm of the IC50 (pIC50) was > 6.30.
For the compound `O=C(CN1C(=O)NC2(CCC(F)(F)CC2)C1=O)c1ccc(-n2c(=O)[nH]c3ccccc32)cc1` [Example 19-22], the pIC50 was > 7.00.
Regarding `Cc1cccc(-c2c(C)sc(C(=O)CN3C(=O)NC4(CCC(F)(F)CC4)C3=O)c2C)c1` [Example 15-11], the pIC50 is > 6.30.
With `O=C(CN1C(=O)NC2(CCC(F)(F)CC2)C1=O)c1ccc(-c2ccnc3c2OCCO3)cc1` [Example 13-50], the pIC50 is > 6.30.
Regarding `Cc1ccccc1-c1c(C)cc(C(=O)CN2C(=O)NC3(CCC(F)(F)CC3)C2=O)n1C` [Example 16-19], the pIC50 was > 7.00.
`Cc1cccc(Oc2ccc(C(=O)CN3C(=O)NC4(CCCCC4)C3=O)cn2)c1` [Example 20-3]: the pIC50 was > 6.30.
Turning to `Nc1ncccc1-c1ccc(C(=O)CN2C(=O)NC3(CCCCC3)C2=O)cc1` [Example 7-13], the pIC50 was > 7.00.
For `O=C(CN1C(=O)NC2(CCC(F)(F)CC2)C1=O)c1ccc(-c2cnn3cccnc23)cc1` [Example 6-68], the pIC50 was > 7.00.
With `CC(=O)c1cccc(-c2c(C)cc(C(=O)CN3C(=O)NC4(CCC(F)(F)CC4)C3=O)n2C)c1` [Example 16-20], the pIC50 was > 7.00.
As to `O=C(CN1C(=O)NC2(CCC(F)(F)CC2)C1=O)c1ccc(-n2ccc3ccccc32)cc1` [Example 19-18], the negative logarithm of the IC50 (pIC50) was > 7.00.
`Cc1cc(C(=O)CN2C(=O)NC3(CCC(F)(F)CC3)C2=O)ccc1-c1cccc(C#N)c1` [Example 13-11]: the negative logarithm of the IC50 (pIC50) is > 7.00.
Turning to `Cc1nccnc1-c1ccc(C(=O)CN2C(=O)NC3(CCC(F)(F)CC3)C2=O)cc1` [Example 6-11], the pIC50 was > 7.00.
In the case of `CN(c1ccccn1)c1ccc(C(=O)CN2C(=O)NC3(CCC(F)(F)CC3)C2=O)cn1` [Example 19-6] it was > 7.00; in that of `Cc1cnc(C)c(-c2ccc(C(=O)CN3CC4(CCC(F)(F)CC4)OC3=O)cc2)n1` [Example 7-17], > 6.30; in that of `Cc1cc(C(=O)CN2C(=O)NC3(CCC(F)(F)CC3)C2=O)sc1-c1cccnc1` [Example 14-7], > 7.00.
In the case of `Cc1cc(C(=O)CN2C(=O)NC3(CCCCC3)C2=O)c(C)n1-c1cccc(OCC2CC2)n1` [Example 3-28, 3-(2-(1-(6-(cyclopropylmethoxy)pyridin-2-yl)-2,5-dimethyl-1H-pyrrol-3-yl)-2-oxoethyl)-1,3-diazaspiro[4.5]decane-2,4-dione], the pIC50 is > 6.30.
Turning to `Cc1sc(C(=O)CN2C(=O)NC3(CCC(F)(F)CC3)C2=O)c(C)c1-c1cncc(F)c1` [Example 15-6], the negative-log IC50 (pIC50) was > 8.00.
Regarding `Cc1cc(C(=O)CN2C(=O)NC3(CCC(F)(F)CC3)C2=O)c(C)n1-c1cccnc1` [Example 3-9], the pIC50 was > 7.00.
Turning to `Cc1ccccc1-c1ccc(C(=O)CN2C(=O)NC3(CCC(F)(F)CC3)C2=O)cn1` [Example 9-11], the negative logarithm of the IC50 (pIC50) was > 8.00.
Take `Cc1cc(C(=O)CN2C(=O)NC3(CCC(F)(F)CC3)C2=O)sc1-c1cccnc1CO` [Example 14-19]: the pIC50 is > 6.30.
With `O=C(CN1C(=O)NC2(CCC(F)(F)CC2)C1=O)c1ccc(-c2ncnc3ncccc23)cc1` [Example 6-59], the pIC50 is > 6.30.
In the case of `O=C(CN1C(=O)NC2(CCC(F)(F)CC2)C1=O)c1ccc(-c2cccc3ccncc23)nc1` [Example 9-12], the pIC50 was > 8.00.
In the case of `Cc1nc(C(=O)CN2C(=O)NC3(CCC(F)(F)CC3)C2=O)n(C)c1-c1cccnc1` [Example 17-12] it was > 6.30.
With `O=C(CN1C(=O)NC2(CCC(F)(F)CC2)C1=O)c1ccc(-c2cccc3c2C(O)CC3)cc1` (stereo not drawn) [Example 6-50], the pIC50 was > 6.30.
For the compound `O=C(CN1C(=O)NC2(CCC(F)(F)CC2)C1=O)c1ccc(Oc2nccs2)cc1` [Example 21-13, 8,8-difluoro-3-(2-oxo-2-(4-(thiazol-2-yloxy)phenyl)ethyl)-1,3-diazaspiro[4.5]decane-2,4-dione], the negative-log IC50 (pIC50) is > 7.00.
As for `Cc1ccc2nc(CN3CCC3)n(-c3ccc(C(=O)CN4C(=O)NC5(CCC(F)(F)CC5)C4=O)cc3)c2n1` [Example 25-4], the negative-log IC50 (pIC50) is > 6.30.
With `Cc1cc(C(=O)CN2C(=O)NC3(CCC(F)(F)CC3)C2=O)n(C)c1-c1cccc(C(N)=O)c1` [Example 16-6], the negative-log IC50 (pIC50) is > 7.00.
As for `Cc1ccccc1-c1ccc(C(=O)CN2C(=O)NC3(CCCCC3)C2=O)cn1` [Example 9-2], the pIC50 is > 8.00.
For `Cc1c(C(=O)CN2C(=O)NC3(CCCCC3)C2=O)nn(C)c1-c1ccccc1` [Example 4-2], the negative logarithm of the IC50 (pIC50) was > 7.00.
As for `O=C(CN1CC2(CCC(F)(F)CC2)OC1=O)c1ccc(-c2cnccc2CO)cc1` [Example 7-16], the pIC50 is > 6.30.
